Measurements taken from patent US20200024278A1, “COMPOSITION COMPRISING ANTIBIOTIC COMPOUND AND AN HETEROCYCLIC COMPOUND AND THEIR USE IN PREVENTING OR TREATING BACTERIAL INFECTIONS” (MUTABILIS, priority 2016, published 2020).
Where two headings read alike, the source gives them in different places.

How the values were obtained:
Assay in all cases: MIC, broth microdilution (CLSI), substance alone or ATB combined with compound at 4 or 8 μg/mL
[1] = tested on: KPN 6299; assay type: cell-based, K. pneumoniae
Procedure, shortened: (§1)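 Antibiotic MICs were determined in presence of fixed compound at 4 or 8 μg/mL, and compound MICs alone, by visual growth inhibition. Inoculum 5·10^5 CFU/mL in ca-MHB, incubated 35 °C for 16-20 h per CLSI-M7-A7. Glucose-6-phosphate (25 μg/ml) added when fosfomycin was tested.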

[2] = tested on: KPN BAA-1898; assay type: cell-based, K. pneumoniae; conditions: for MIC: Klebsiella pneumoniae, BAA1898
Procedure, shortened: as §1

[3] = tested on: KPN UFR42; assay type: cell-based, K. pneumoniae; conditions: for MIC: Klebsiella pneumoniae
Procedure, shortened: as §1

[4] = tested on: PAE 105250; assay type: cell-based, P. aeruginosa; conditions: PAE 105250
Procedure, shortened: as §1

[5] = tested on: PAE UFR48; assay type: cell-based, P. aeruginosa; conditions: PAE UFR48
Procedure, shortened: as §1

[6] = tested on: PAE UFR90; assay type: cell-based, P. aeruginosa; conditions: PAE UFR90
Procedure, shortened: as §1

[7] = Pseudomonas aeruginosa, antibiotic alone, read-out: MIC ATB alone

## C=CC1=C(C(=O)O)N2C(=O)[C@@H](NC(=O)/C(=N\OCC(=O)O)c3csc(N)n3)[C@H]2SC1 [FIX, Cefixime, reference compound]
[1]; with Example 9 at 4 μg/ml
  MIC ATB combined with Example 9 @4 μg/ml: <=0.031 μg/mL
[1]; with Example 11 at 8 μg/ml
  MIC ATB combined with Example 11 @8 μg/ml: <0.031 µg/mL
[1]; with Example 12 at 8 μg/ml
  MIC ATB combined with Example 12 @8 μg/ml: <0.031 µg/mL
[1]; with Example 13 at 8 μg/ml
  MIC ATB combined with Example 13 @8 μg/ml: <=0.031 μg/mL
[1]; with Example 14 at 8 μg/ml
  MIC ATB combined with Example 14 @8 μg/ml: <0.031 µg/mL
[1]; with Example 15 at 4 μg/ml
  MIC ATB combined with Example 15 @4 μgml: <0.031 µg/mL
[1]; with Example 16 at 4 μg/ml
  MIC ATB combined with Example 16 @4 μg/ml: <0.031 µg/mL
[2]; KPN BAA-1898, with Example 1 @8 μg/ml
  MIC ATB combined with Example 1 @8 μg/ml: 0.25 µg/mL
[2]; KPN BAA-1898, with Example 1 at 8 μg/ml
  MIC ATB combined with Example 1 @8 μg/ml: 0.25 µg/mL
[2]; KPN BAA-1898, with Example 7 at 8 μg/ml
  MIC ATB combined with Example 7 @8 μgml: 0.25 µg/mL
[2]; KPN BAA-1898, with Example 9 @4 μg/ml
  MIC ATB combined with Example 9 @4 μg/ml: <0.031 µg/mL
[2]; KPN BAA-1898, with Example 9 at 4 μg/ml
  MIC ATB combined with Example 9 @4 μg/ml: <0.031 µg/mL
[2]; KPN BAA-1898, with Example 11 at 8 μg/ml
  MIC ATB combined with Example 11 @8 μg/ml: <0.031 µg/mL
[2]; KPN BAA-1898, with Example 12 at 8 μg/ml
  MIC ATB combined with Example 12 @8 μg/ml: <0.031 µg/mL
[2]; KPN BAA-1898, with Example 13 at 8 μg/ml
  MIC ATB combined with Example 13 @8 μg/ml: 0.5 µg/mL
[2]; KPN BAA-1898, with Example 14 at 8 μg/ml
  MIC ATB combined with Example 14 @8 μg/ml: <0.031 µg/mL
[2]; KPN BAA-1898, with Example 15 at 4 μg/ml
  MIC ATB combined with Example 15 @4 μgml: <0.031 µg/mL
[2]; KPN BAA-1898, with Example 16 at 4 μg/ml
  MIC ATB combined with Example 16 @4 μg/ml: <0.031 µg/mL
[2]
  MIC: > 128 µg/mL
[2]; KPN BAA-1898, antibiotic alone, read-out: MIC ATB alone
  MIC: > 512 µg/mL
[3]; KPN UFR42, with Example 1 @8 μg/ml
  MIC ATB combined with Example 1 @8 μg/ml: >32 µg/mL
[3]; KPN UFR42, with Example 1 at 8 μg/ml
  MIC ATB combined with Example 1 @8 μg/ml: >32 µg/mL
[3]; KPN UFR42, with Example 7 at 8 μg/ml
  MIC ATB combined with Example 7 @8 μgml: >32 µg/mL
[3]; KPN UFR42, with Example 9 @4 μg/ml
  MIC ATB combined with Example 9 @4 μg/ml: >32 µg/mL
[3]; KPN UFR42, with Example 9 at 4 μg/ml
  MIC ATB combined with Example 9 @4 μg/ml: >32 µg/mL
[3]; KPN UFR42, with Example 11 at 8 μg/ml
  MIC ATB combined with Example 11 @8 μg/ml: <0.031 µg/mL
[3]; KPN UFR42, with Example 12 at 8 μg/ml
  MIC ATB combined with Example 12 @8 μg/ml: <0.031 µg/mL
[3]; KPN UFR42, with Example 13 at 8 μg/ml
  MIC ATB combined with Example 13 @8 μg/ml: >32 µg/mL
[3]; KPN UFR42, with Example 14 at 8 μg/ml
  MIC ATB combined with Example 14 @8 μg/ml: <0.031 µg/mL
[3]; KPN UFR42, with Example 15 at 4 μg/ml
  MIC ATB combined with Example 15 @4 μgml: <0.031 µg/mL
[3]; KPN UFR42, with Example 16 at 4 μg/ml
  MIC ATB combined with Example 16 @4 μg/ml: <0.031 µg/mL
[3]
  MIC: > 128 µg/mL
[3]; KPN UFR42, antibiotic alone, read-out: MIC ATB alone
  MIC: > 256 µg/mL
[4]; with Example 1 @8 μg/ml
  MIC ATB combined with Example 1 @8 μg/ml: <0.031 µg/mL
[4]; with Example 1 at 8 μg/ml
  MIC ATB combined with Example 1 @8 μg/ml: <0.031 µg/mL
[4]; with Example 7 at 8 μg/ml
  MIC ATB combined with Example 7 @8 μgml: >32 µg/mL
[4]; with Example 9 @4 μg/ml
  MIC ATB combined with Example 9 @4 μg/ml: >32 µg/mL
[4]; with Example 9 at 4 μg/ml
  MIC ATB combined with Example 9 @4 μg/ml: >32 µg/mL
[4]; with Example 11 at 8 μg/ml
  MIC ATB combined with Example 11 @8 μg/ml: >32 µg/mL
[4]; with Example 12 at 8 μg/ml
  MIC ATB combined with Example 12 @8 μg/ml: >32 µg/mL
[4]; with Example 13 at 8 μg/ml
  MIC ATB combined with Example 13 @8 μg/ml: >32 µg/mL
[4]; with Example 14 at 8 μg/ml
  MIC ATB combined with Example 14 @8 μg/ml: >32 µg/mL
[4]; with Example 15 at 4 μg/ml
  MIC ATB combined with Example 15 @4 μgml: >32 µg/mL
[4]; with Example 16 at 4 μg/ml
  MIC ATB combined with Example 16 @4 μg/ml: >32 µg/mL
[4]; [7]
  MIC: > 512 µg/mL
[5]; with Example 1 @8 μg/ml
  MIC ATB combined with Example 1 @8 μg/ml: <0.031 µg/mL
[5]; with Example 1 at 8 μg/ml
  MIC ATB combined with Example 1 @8 μg/ml: <0.031 µg/mL
[5]; with Example 7 at 8 μg/ml
  MIC ATB combined with Example 7 @8 μgml: >32 µg/mL
[5]; with Example 9 @4 μg/ml
  MIC ATB combined with Example 9 @4 μg/ml: >32 µg/mL
[5]; with Example 9 at 4 μg/ml
  MIC ATB combined with Example 9 @4 μg/ml: >32 µg/mL
[5]; with Example 11 at 8 μg/ml
  MIC ATB combined with Example 11 @8 μg/ml: >32 µg/mL
[5]; with Example 12 at 8 μg/ml
  MIC ATB combined with Example 12 @8 μg/ml: >32 µg/mL
[5]; with Example 13 at 8 μg/ml
  MIC ATB combined with Example 13 @8 μg/ml: >32 µg/mL
[5]; with Example 14 at 8 μg/ml
  MIC ATB combined with Example 14 @8 μg/ml: >32 µg/mL
[5]; with Example 15 at 4 μg/ml
  MIC ATB combined with Example 15 @4 μgml: >32 µg/mL
[5]; with Example 16 at 4 μg/ml
  MIC ATB combined with Example 16 @4 μg/ml: >32 µg/mL
[5]; [7]
  MIC: > 512 µg/mL
[6]; with Example 1 @8 μg/ml
  MIC ATB combined with Example 1 @8 μg/ml: <0.031 µg/mL
[6]; with Example 1 at 8 μg/ml
  MIC ATB combined with Example 1 @8 μg/ml: <0.031 µg/mL
[6]; with Example 7 at 8 μg/ml
  MIC ATB combined with Example 7 @8 μgml: >32 µg/mL
[6]; with Example 9 @4 μg/ml
  MIC ATB combined with Example 9 @4 μg/ml: >32 µg/mL
[6]; with Example 9 at 4 μg/ml
  MIC ATB combined with Example 9 @4 μg/ml: >32 µg/mL
[6]; with Example 11 at 8 μg/ml
  MIC ATB combined with Example 11 @8 μg/ml: >32 µg/mL
[6]; with Example 12 at 8 μg/ml
  MIC ATB combined with Example 12 @8 μg/ml: >32 µg/mL
[6]; with Example 13 at 8 μg/ml
  MIC ATB combined with Example 13 @8 μg/ml: >32 µg/mL
[6]; with Example 14 at 8 μg/ml
  MIC ATB combined with Example 14 @8 μg/ml: >32 µg/mL
[6]; with Example 15 at 4 μg/ml
  MIC ATB combined with Example 15 @4 μgml: >32 µg/mL
[6]; with Example 16 at 4 μg/ml
  MIC ATB combined with Example 16 @4 μg/ml: >32 µg/mL
[6]; [7]
  MIC: > 32 µg/mL
